Results: publication PMC5826917, “A small molecule inhibitor of Nicotinamide N-methyltransferase for the treatment of metabolic disorders” (Scientific Reports, 2018)

Tests used:
[1] = biological target: Cannabinoid Receptor 2 (CB2) (Homo sapiens, UniProt P34972); assay: Selectivity panel: CB2; format: cell-based
Method: Supplement 41598_2018_22081_MOESM1_ESM.docx, table 2: Supplementary table 2: Selectivity profile of JBSNF-000088 (at 10 µM) vs a panel of 34 receptors, channels and enzymes. | column: E% (agonistic); I% (antagonistic or inhibitory)

ob/ob mice = assay: Chronic efficacy study in ob/ob mice; format: in vivo, mouse
Method: Samples for MNA were analyzed employing a fit-for-purpose LC-MS/MS method. PE-Sciex API-4000 triple quadrupole (PerkinElmerSciex Instruments, Boston, MA) mass spectrometer was employed for this analysis. Samples (5 µL) were injected onto Kinetex HILIC (50 × 4.6 mm, 2.6 µm; Phenomenex, Torrance, CA, USA) column connected to Shimadzu VP (Shimadzu, Japan) LC system. The gradient mobile phase mixture of 0.2% formic acid and acetonitrile was delivered at a flow rate of 0.45 ml min-1 into the mass spectrometer electrospray ionization (ESI) chamber. Quantitation was achieved by MS/MS detection in positive ion mode for MNA and internal standard (d4–MNA). Detection of the ions was performed in the multiple reaction monitoring (MRM) mode, monitoring the transition of the m/z 137 precursor ion to the m/z 92 product ion for MNA and m/z 141 precursor ion to the m/z 84 product ion for d4-MNA (internal standard).
A simple protein precipitation extraction method was followed for extraction of N-methylnicotinamide from plasma and various tissue homogenate samples. The tissue samples were homogenized with 1:3 proportions of phosphate buffer saline (PBS) and this homogenate was used for N-Methylnicotinamide determinations. To an aliquot of ~50 μL of plasma/ liver homogenate/ adipose tissue homogenate samples ~300 µl of acetonitrile containing IS (d4-MNA) solution was added, followed by vortex for ~3 minutes and centrifuged for 10 minutes at 14,000 rpm. The supernatant was separated and transferred to pre-labeled HPLC vials and analyzed by LC-MS/MS system.
Male C57BL6/N (Vivo Bio Tech Ltd, India), ob/ob (B6.V-Lepob/OlaHsd) and its lean control (Envigo laboratories Inc, USA) and db/db (BKS.Cg- + Leprdb/ + Leprdb/OlaHsd) and its lean control (Envigo laboratories Inc, USA) were housed in individually ventilated cages (n = 5/cage) under standard laboratory conditions. The study room environment was maintained at a temperature of 21–24 °C and, relative humidity at 40–70%. The animal rooms were maintained under 12 h light and dark cycle. Animals were provided with ad libitum access to water and food (except where noted otherwise, e.g. during fasting prior for glucose tolerance tests, fasting prior to terminal sacrifice). Animals were acclimatized for 1 week before initiation of studies. For Diet induced obesity (DIO) mice study, C57BL6/N mice were maintained on rodents chow diet (Teklad; Harlan) or HFD (60% Kcal; Research diet) for 14 weeks before study initiation and throughout the study period. ob/ob and db/db mice and their lean controls were maintained on rodents chow diet (Teklad; Harlan). All the experiments were approved by Institutional Animal Ethics Committee (IAEC) of Jubilant Biosys Ltd, India.
Lean control + Vehicle and HFD + Vehicle Control groups (G1 and G2) mice were administered with vehicle. Dose formulations of HFD + JBSNF-000088, 50 mg kg^−1, po, bid were administered at dose volume of 5 mL kg^−1 body weight to G3 mice. Similar pattern was followed for ob/ob mice and db/db mice studies. The dose volume for individual animals was calculated based on the most recently recorded body weight during the study period. […] Cage side observations of animals for visible clinical signs, was carried out once daily throughout the study period. Individual animal body weights were recorded twice weekly during the study period.
The ob/ob mice were 12 weeks of age at the start of the study and db/db mice were 8 weeks of age at the start of the study. DIO mice were 20 weeks of age at the start of the study. In each study, non-diabetic lean mice comprised the control group which received vehicle (0.5% w/v HEC and 0.5% v/v Tween 80) and obese or diabetic mice were randomly assigned to two groups based on body weight and unfasted glucose which received either vehicle (0.5% w/v HEC and 0.5% v/v Tween 80) or JBSNF-000088, 50 mg kg^−1, po, bid for 30 days.

human NNMT = assay: Thermal shift assay, human NNMT; format: binding; settings: in presence of SAM, molar ratio enzyme:SAM:compound ~1:5:10
Method: Thermal shift assay experiments were carried out as described previously.

[2] = biological target: Adenosine Receptor 1 (ADORA1) (Homo sapiens, UniProt P30542); assay: Selectivity panel: ADORA1; format: cell-based
Sequence of Adenosine Receptor 1 (ADORA1) (P30542 whole entry): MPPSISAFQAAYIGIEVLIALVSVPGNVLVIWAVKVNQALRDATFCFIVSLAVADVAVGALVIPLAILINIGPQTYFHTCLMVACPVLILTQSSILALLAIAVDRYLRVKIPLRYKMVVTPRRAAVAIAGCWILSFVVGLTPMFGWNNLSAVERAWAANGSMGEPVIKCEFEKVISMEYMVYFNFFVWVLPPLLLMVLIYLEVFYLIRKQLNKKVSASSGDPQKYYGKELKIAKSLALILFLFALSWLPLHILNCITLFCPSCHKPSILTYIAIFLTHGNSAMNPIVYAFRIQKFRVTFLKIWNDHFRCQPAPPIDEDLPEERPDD

Na+/K+ ATPase Pump = assay: Selectivity panel: Na+/K+ ATPase; format: biochemical; settings: 10 µM
[3] = system: endogenous NNMT activity in differentiated 3T3L1 cells; assay: Cell based 3T3L1 assay (MNA levels by LC-MS/MS); set-up: species or system mouse
Method: PE-Sciex API-4000 triple quadrupole (PerkinElmerSciex Instruments, Boston, MA) mass spectrometer was employed for this analysis. […] Detection of the ions was performed in the multiple reaction monitoring (MRM) mode, monitoring the transition of the m/z 137 precursor ion to the m/z 92 product ion for MNA and m/z 141 precursor ion to the m/z 84 product ion for d4-MNA (internal standard).
The supernatant was separated and transferred to pre-labeled HPLC vials and analyzed by LC-MS/MS system.

Sequence of Cannabinoid Receptor 2 (CB2) (P34972 whole entry): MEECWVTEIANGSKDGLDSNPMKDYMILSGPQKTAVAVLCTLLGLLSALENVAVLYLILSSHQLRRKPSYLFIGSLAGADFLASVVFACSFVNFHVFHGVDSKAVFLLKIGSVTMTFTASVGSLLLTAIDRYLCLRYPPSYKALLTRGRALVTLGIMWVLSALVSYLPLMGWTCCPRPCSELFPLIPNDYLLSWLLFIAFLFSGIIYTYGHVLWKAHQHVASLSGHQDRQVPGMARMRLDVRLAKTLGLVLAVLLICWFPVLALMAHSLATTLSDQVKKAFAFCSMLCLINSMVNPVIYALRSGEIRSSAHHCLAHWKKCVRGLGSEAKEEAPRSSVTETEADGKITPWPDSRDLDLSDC

SMILES: COc1ccc(C(N)=O)cn1 [JBSNF-000088, 6-methoxynicotinamide]
- E% (agonistic), CB2 ([1]; 10 µM): -7%
- inhibition at 10 µM ([1]; read-out: I% (antagonistic or inhibitory), CB2): 1%
- body weight gain (ob/ob mice; 50 mg/kg b.i.d p.o., 30 days, vs vehicle): gained comparable weight
- MNA levels in visceral WAT and subcutaneous fat (ob/ob mice; 30 days, p < 0.0001 vs vehicle control): statistically significant reduction
- fed blood glucose or insulin (ob/ob mice; day 21, vs vehicle control): no reduction
- glucose tolerance (ob/ob mice; day 28): statistically significant improvement
- AUC blood glucose (OGTT) (ob/ob mice; day 28, p < 0.001 vs vehicle control): significantly (p < 0.001) lower
- plasma insulin (ob/ob mice; fed days 7, 14 or 21, fasting day 28, 15 minutes after glucose bolus): not accompanied by a reduction in plasma insulin
- HOMA-IR index (ob/ob mice; p < 0.001 vs vehicle control): statistically significant improvement
- cumulative food intake (ob/ob mice; vs vehicle): comparable
- shift in melting temperature (Tm), human NNMT (human NNMT): 5 K
- E% (agonistic), ADORA1 ([2]; 10 µM): -3%
- inhibition at 10 µM ([2]; read-out: I% (antagonistic or inhibitory), ADORA1): -1%
- I% (antagonistic or inhibitory), Na+/K+ ATPase Pump (Na+/K+ ATPase Pump): 0%
- IC50 ([3]; Mus musculus, 3T3-L1, 24 h treatment, MNA by LC-MS/MS): 6.3 µM
- right shift in potency, 3T3L1 cells compared to U2OS cells ([3]; ratio of cellular IC50 values): approximately 4 fold
